This is an account of results in PMC13144739, “Global analysis of cancer cell responses to USP9X inhibition” (The EMBO Journal, 2026).

“Also recorded” adds a separate entry of the source.

In assay [1] the test system is HMEC-1 cells. The assay is described as follows: Lattice light sheet imaging of mitosis, HMEC-1. It counts as cell-based, human. The following applies: 15 µM, imaged 24-48 h. Here is the method:
(§1) MDA-MB-231, MiaPaca2, HMEC-1, SK-MEL-2 and UO-31 cells were seeded at 2–15 × 10^4 cells/mL in 8-well glass µ-slides (ibidi). […] SPY650-Tubulin, SPY555-DNA (both Spirochrome, Inc.), and Annexin V FITC (Sigma-Aldrich) were added at a final concentration of 1 in 1000. Cells were left to grow for 24 h before time-lapse live-cell data were acquired using a Lattice Light Sheet 7 (Zeiss). […] Aberration correction was set to a value of 170 to minimise aberrations as determined by imaging the Point Spread Function using 100 nm fluorescent microspheres. Data were collected with a frame time of 10 ms and a z step of 0.4 μm with 834 frames per 290 μm by 290 μm. Individual regions were imaged in parallel across six wells of the eight-well chamber slide. Data are presented as Maximum Intensity Projections (MIPs), and these MIPs were used for all downstream analysis. Tile regions were imaged for 24 h with 10 min intervals at 37 °C, 5% CO2. Analysis was performed using the MIPs of the different full fields of cells over the 24–48 h time period. Mitosis and mitosis arrest were classified through a combination of automated image analysis and manual validation. […] Small erroneous detected spots were further removed through a manually adjusted size filter. […] The mean intensity of all tracks was then measured to determine mitosis and mitosis arrest. […]

The target of assay [2] is T1, USP9X catalytic domain (Homo sapiens, UniProt Q93008).
T1 construct: His/SUMO (pOPIN-S vector) (N, cleaved yes); made in house; host or cells: E. coli BL21
T1 sequence (Q93008 1551-1970): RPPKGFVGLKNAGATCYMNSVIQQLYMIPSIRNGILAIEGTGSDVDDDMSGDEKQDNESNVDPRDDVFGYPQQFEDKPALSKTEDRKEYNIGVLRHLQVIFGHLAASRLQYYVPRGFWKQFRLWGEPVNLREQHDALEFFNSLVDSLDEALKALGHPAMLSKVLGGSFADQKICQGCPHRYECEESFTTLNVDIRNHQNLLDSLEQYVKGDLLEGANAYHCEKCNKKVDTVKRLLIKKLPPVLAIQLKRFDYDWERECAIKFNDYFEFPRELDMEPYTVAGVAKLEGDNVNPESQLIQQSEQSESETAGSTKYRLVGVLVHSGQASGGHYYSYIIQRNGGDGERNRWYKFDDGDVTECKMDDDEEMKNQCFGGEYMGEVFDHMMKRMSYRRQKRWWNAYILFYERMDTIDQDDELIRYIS
The assay is described as follows: Ub-PA suicide probe competition assay. The following applies: 50 µM compound, WT catalytic domain. It counts as biochemical. Here is the method: For inhibitor activity assays, USP9X catalytic domain (di-ubiquitin cleavage assay: 750 nM, ubiquitin-probe assays: 2.5 µM) was pre-incubated with USP9X inhibitors for 30 min at ambient temperature and subsequently mixed with di-ubiquitin (final concentration 2 µM) in assay buffer (25 mM Tris [pH 8.0], 150 mM NaCl, 10 mM DTT) at pH 8.0 or was mixed with ubiquitin-propargylamide (Ub-PA)/ubiquitin-vinyl sulfonate (Ub-VS) probes at a final concentration of 10 µM in assay buffer. For both assays, the mixture was incubated over a time course, and the reaction was stopped by mixing samples with 2× LDS sample buffer (Invitrogen) supplemented with 3% (v/v) 2-mercaptoethanol. All protein samples were run on a 4–12% Bis-Tris SDS-PAGE gradient gel (Invitrogen) for 60 min at 140 V. The gel was stained with InstantBlue® (Abcam) and imaged.

The subject of assay [3] is UO-31 cell line. The assay is described as follows: NCI-60 cancer cell panel, UO-31. Format: cell-based, human. The following applies: 10 µM, 3 days. How it is done:
Inhibitors were tested at 10 µM. Data shown is the mean of two technical replicates and is shown relative to the no-drug control, and relative to the time zero number of cells.

The subject of assay [4] is PANC-1 cells. The assay is described as follows: Colony formation assay, PANC-1. It counts as cell-based, human. The following applies: 10 µM, 7–12 days. Here is the method: Cells were seeded at low density (200–4000 cells per well) after initial optimisation in a six-well tissue culture-treated plate (Falcon). Twenty-four hours post seeding, media was replaced, and the inhibitor was added. Cells were left to grow into colonies between 7 and 12 days, depending on the cell line. For analysis, the media was removed, and the cells were fixed with 10% (w/v) formalin for 10 min. Colonies were stained with crystal violet (Sigma-Aldrich, 0.5% [w/v] in 20% [v/v] MeOH) for 10 min and washed thrice with distilled H2O. Plates were imaged using the ChemiDoc imaging system (Bio-Rad) and analysed using the ImageJ ColonyArea plugin as described previously (Guzmán et al, [2014]).

For assay [5], the system named is MDA-MB-231 cells. The assay is described as follows: Lattice light sheet imaging of mitosis, MDA-MB-231. Format: cell-based, human. The following applies: 15 µM. How it is done:
as §1

Assay [6] deals with T2, USP9X.
T2 construct: endogenous in cells; host or cells: MCF-7 cell lysate
The assay is described as follows: DUB IP-MS in MCF-7 cell lysates, USP9X. Format: biochemical, human. The following applies: 50 µM. How it is done: MCF-7 cells have been profiled for active DUBs previously (Pinto-Fernández et al, [2019]). Lysates were generated as described by others (Turnbull et al, [2017]) using 30 s freeze-thaw cycles (thrice) in lysis buffer (50 mM Tris [pH 7.4], 5 mM MgCl2 × 6 H2O, 0.5 mM EDTA [pH 8.0], 250 mM sucrose and 1 mM DTT) at pH 7.5. […] A pre-treatment of cell lysates with 0.5 µg Ub-VS was included for a baseline DUB response to the Ub-VS probe. 0.1 µg 3X-FLAG-Ub-VS probe was added to samples and incubated for 5 min at 37 °C. […] Samples were washed thrice with lysis buffer and eluted from the resin with lysis buffer supplemented with 1% (w/v) SDS following a 10 min incubation. Two consecutive elutions were pooled, and samples were stored at −80 °C until processing.
DNA was hydrolysed with the addition of 2 µL neat TFA, and lysates were neutralised to pH 8.5 by the addition of 1 M Tris-HCl as previously described (Dagley et al, [2019]). Protein concentration was determined using Pierce™ BCA Protein Assay Kit (Thermo Fisher Scientific) following the manufacturer’s instructions. For DUB IP-MS, samples were processed using S-Trap spin columns (Profiti) by following the manufacturer’s instructions. […]

In the case of `Cc1[nH]c2ccc(C(=O)N3CCN(S(=O)(=O)c4ccc5c(c4)OCCO5)CC3)cc2c1C` [WEHI-092], in assay [1], the “cell division phenotype, HMEC-1” value is “proceeded through mitosis normally”. For the same compound, the “modification of USP9X with Ub-PA probe” value in assay [2] is reported as “prevented the modification of USP9X with ubiquitin propargylamide; also recorded: unable to be modified by the probe”. In addition, the “cell killing, UO-31” value in assay [3] is given as “cell death”. Besides, the “clonogenic potential, PANC-1” value in assay [4] is “strong decrease in proliferative capacity”. The “apoptosis on metaphase arrest (Annexin V uptake), MDA-MB-231” value in assay [5] is reported as “did not trigger apoptosis”. Also, the “cell division phenotype, MDA-MB-231” value in assay [5] (imaged 24-48 h) is reported as “significant defects in cell division”. Further, the “inhibition of USP9X in MCF-7 lysate (DUB IP-MS)” value in assay [6] was “inhibited all active USP9X in the lysate”.
